Experimental data from patent US9290457B2, “Substituted dihydropyrimidinones and their use as inhibitors of neutrophil elastase activity” (Boehringer Ingelheim International GmbH, priority 2014, dated 2016).

Target: neutrophil elastase (Homo sapiens (Human), UniProt P08246)
Experiment: Human Neutrophil Elastase Assay
Assay type: biochemical
Conditions: substrate MeOSuc-Ala-Ala-Pro-Val-AMC
Experimental: Human Neutrophil Elastase Assay
All other materials were of the highest grade commercially available.
The following buffers were used: Compound buffer: 100 mM Tris, 500 mM NaCl, adjusted to pH 7.5; Assay buffer: 100 mM Tris, 500 mM NaCl, adjusted to pH 7.5, containing 0.01% BSA.
Assay conditions: Test compounds were prediluted in DMSO and subsequently in compound buffer (5% DMSO final). […] After inactivation of the enzyme, fluorescence intensities were measured at 380 nm excitation and 460 nm emission wavelengths.
Each plate contains wells with a high value control (DMSO+enzyme+substrate) and wells with a low value control (DMSO+inactivated enzyme+substrate). IC50 values were estimated using a sigmoidal concentration response curve with variable slope. Means of low values were taken as 0%, means of high values as 100%.

neutrophil elastase, sequence (P08246 30-247): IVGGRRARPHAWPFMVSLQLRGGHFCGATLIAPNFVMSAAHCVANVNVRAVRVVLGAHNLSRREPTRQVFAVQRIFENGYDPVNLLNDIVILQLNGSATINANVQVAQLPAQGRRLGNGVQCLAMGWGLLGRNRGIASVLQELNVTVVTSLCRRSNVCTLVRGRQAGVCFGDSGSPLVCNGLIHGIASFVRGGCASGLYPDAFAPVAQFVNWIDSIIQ

CC(=O)C1=C(C)N(c2cccc(C(F)(F)F)c2)C(=O)N(C)C1c1ccc(C#N)cc1C(=O)NCC(C)(C)N (stereo not drawn) [Example 2.13]
IC50: < 1 nM

CCOC(=O)C1=C(C)N(c2cccc(C(F)(F)F)c2)C(=O)N(C)C1c1ccc(C#N)cc1C(=O)N1CC(O)C1 (stereo not drawn) [Example 3.13]
IC50: < 1 nM

CCOC(=O)C1=C(C)N(c2cccc(C(F)(F)F)c2)C(=O)N(C)C1c1ccc(C#N)cc1C(=O)NCCF (stereo not drawn) [Example 3.11]
IC50: < 1 nM

CCOC(=O)C1=C(C)N(c2cccc(C(F)(F)F)c2)C(=O)N(C)C1c1ccc(C#N)cc1C(=O)N1CCC(O)CC1 (stereo not drawn) [Example 3.27]
IC50: 2.2 nM

CC(=O)C1=C(C)N(c2cccc(C(F)(F)F)c2)C(=O)N(C)C1c1ccc(C#N)cc1C(=O)NCc1ccccn1 (stereo not drawn) [Example 1.46]
IC50: < 1 nM

CCOC(=O)C1=C(C)N(c2cccc(C(F)(F)F)c2)C(=O)N(C)C1c1ccc(C#N)cc1C(=O)NC1(C#N)CC1 (stereo not drawn) [Example 3.1]
IC50: < 1 nM

CC(=O)C1=C(C)N(c2cccc(C(F)(F)F)c2)C(=O)N(C)C1c1ccc(C#N)cc1C(=O)O (stereo not drawn) [Intermediate 6, 2-[5-Acetyl-3,6-dimethyl-2-oxo-1-(3-trifluoromethyl-phenyl)-1,2,3,4-tetrahydro-pyrimidin-4-yl]-5-cyano-benzoic acid]
IC50: 3.93 nM

CC(=O)C1=C(C)N(c2cccc(C(F)(F)F)c2)C(=O)N(C)C1c1ccc(C#N)cc1-c1ccn(C)c(=O)c1 (stereo not drawn) [Example 5.4]
IC50: < 1 nM

CC(=O)C1=C(C)N(c2cccc(C(F)(F)F)c2)C(=O)N(C)C1c1ccc(C#N)cc1C(=O)N(C)CCO (stereo not drawn) [Example 1.14]
IC50: < 1 nM

CC(=O)C1=C(C)N(c2cccc(C(F)(F)F)c2)C(=O)N(C)C1c1ccc(C#N)cc1C(=O)NCc1ncco1 (stereo not drawn) [Example 1.37]
IC50: < 1 nM

CC(=O)C1=C(C)N(c2cccc(C(F)(F)F)c2)C(=O)N(C)C1c1ccc(C#N)cc1C(=O)NC1CCS(=O)(=O)C1 (stereo not drawn) [Example 1.31]
IC50: < 1 nM

CCOC(=O)C1=C(C)N(c2cccc(C(F)(F)F)c2)C(=O)N(C)C1c1ccc(C#N)cc1C(=O)NC1CCN(C)C1 (stereo not drawn) [Example 4.18]
IC50: 1.3 nM

CC(=O)C1=C(C)N(c2cccc(C(F)(F)F)c2)C(=O)N(C)C1c1ccc(C#N)cc1C(=O)NC1CCC(O)C1 (stereo not drawn) [Example 1.25]
IC50: 1.1 nM

CC(=O)C1=C(C)N(c2cccc(C(F)(F)F)c2)C(=O)N(C)C1c1ccc(C#N)cc1C(=O)N(C)C (stereo not drawn) [Example 1.2]
IC50: < 1 nM

CC(=O)C1=C(C)N(c2cccc(C(F)(F)F)c2)C(=O)N(C)C1c1ccc(C#N)cc1C(=O)NCc1ccno1 (stereo not drawn) [Example 1.38]
IC50: < 1 nM

CCOC(=O)C1=C(C)N(c2cccc(C(F)(F)F)c2)C(=O)N(C)C1c1ccc(C#N)cc1C(=O)N[C@@H]1CCNC1 (stereo partly drawn) [Example 4.11]
IC50: 1.1 nM

CC(=O)C1=C(C)N(c2cccc(C(F)(F)F)c2)C(=O)N(C)C1c1ccc(C#N)cc1-c1ccncc1 (stereo not drawn) [Example 5.10]
IC50: 1.3 nM

CCOC(=O)C1=C(C)N(c2cccc(C(F)(F)F)c2)C(=O)N(C)C1c1ccc(C#N)cc1C(=O)NCC(F)(F)F (stereo not drawn) [Example 3.26]
IC50: 1.6 nM

CC(=O)C1=C(C)N(c2cccc(C(F)(F)F)c2)C(=O)N(C)C1c1ccc(C#N)cc1C(=O)N1CC[C@@H](N(C)C)C1 (stereo partly drawn) [Example 1.63]
IC50: 1.8 nM

CCOC(=O)C1=C(C)N(c2cccc(C(F)(F)F)c2)C(=O)N(C)C1c1ccc(C#N)cc1C(=O)N[C@H]1CCNC1 (stereo partly drawn) [Example 4.10]
IC50: 1.2 nM

CC(=O)C1=C(C)N(c2cccc(C(F)(F)F)c2)C(=O)N(C)C1c1ccc(C#N)cc1C(=O)N1CCN(C2CC2)CC1 (stereo not drawn) [Example 1.81]
IC50: 8.8 nM

CCOC(=O)C1=C(C)N(c2cccc(C(F)(F)F)c2)C(=O)N(C)C1c1ccc(C#N)cc1C(=O)NC1CCOC1 (stereo not drawn) [Example 3.21]
IC50: 1.4 nM

CCOC(=O)C1=C(C)N(c2cccc(C(F)(F)F)c2)C(=O)N(C)C1c1ccc(C#N)cc1-c1ccco1 (stereo not drawn) [Example 14, 4-(4-Cyano-2-furan-2-yl-phenyl)-3,6-dimethyl-2-oxo-1-(3-trifluoromethyl-phenyl)-1,2,3,4-tetrahydro-pyrimidine-5-carboxylic acid ethyl ester]
IC50: 3.7 nM

CCOC(=O)C1=C(C)N(c2cccc(C(F)(F)F)c2)C(=O)N(C)C1c1ccc(C#N)cc1C(=O)NCCO (stereo not drawn) [Example 3.10]
IC50: 3 nM

CCOC(=O)C1=C(C)N(c2cccc(C(F)(F)F)c2)C(=O)N(C)C1c1ccc(C#N)cc1C(=O)N1CC[C@H](NC)C1 (stereo partly drawn) [Example 4.16]
IC50: < 1 nM

CC(=O)C1=C(C)N(c2cccc(C(F)(F)F)c2)C(=O)N(C)C1c1ccc(C#N)cc1-c1ccc2c(cnn2C)c1 (stereo not drawn) [Example 5.12]
IC50: 3 nM

CCOC(=O)C1=C(C)N(c2cccc(C(F)(F)F)c2)C(=O)N(C)C1c1ccc(C#N)cc1C(=O)N1CC[C@H](N(C)C)C1 (stereo partly drawn) [Example 3.38]
IC50: 1 nM

CC(=O)C1=C(C)N(c2cccc(C(F)(F)F)c2)C(=O)N(C)C1c1ccc(C#N)cc1C(=O)N(C)Cc1cnn(C)c1 (stereo not drawn) [Example 1.30]
IC50: < 1 nM

CC(=O)C1=C(C)N(c2cccc(C(F)(F)F)c2)C(=O)N(C)C1c1ccc(C#N)cc1C(=O)NC1COC1 (stereo not drawn) [Example 1.13]
IC50: < 1 nM

CC(=O)C1=C(C)N(c2cccc(C(F)(F)F)c2)C(=O)N(C)C1c1ccc(C#N)cc1C(=O)NCc1cn[nH]c1 (stereo not drawn) [Example 1.36]
IC50: < 1 nM

COC(=O)c1cc(C#N)ccc1C1C(C(C)=O)=C(C)N(c2cccc(C(F)(F)F)c2)C(=O)N1C (stereo not drawn) [Intermediate 5, 2-[5-Acetyl-3,6-dimethyl-2-oxo-1-(3-trifluoromethyl-phenyl)-1,2,3,4-tetrahydro-pyrimidin-4-yl]-5-cyano-benzoic acid methyl ester]
IC50: < 1 nM

CC(=O)C1=C(C)N(c2cccc(C(F)(F)F)c2)C(=O)N(C)C1c1ccc(C#N)cc1C(=O)N1CCN(C(C)C)CC1 (stereo not drawn) [Example 1.82]
IC50: 2.7 nM

CC(=O)C1=C(C)N(c2cccc(C(F)(F)F)c2)C(=O)N(C)C1c1ccc(C#N)cc1C(=O)NCc1ccoc1 (stereo not drawn) [Example 1.34]
IC50: < 1 nM

CCOC(=O)C1=C(C)N(c2cccc(C(F)(F)F)c2)C(=O)N(C)C1c1ccc(C#N)cc1C(=O)N1CCN(CC)CC1 (stereo not drawn) [Example 3.2]
IC50: 3 nM

CCOC(=O)C1=C(C)N(c2cccc(C(F)(F)F)c2)C(=O)N(C)C1c1ccc(C#N)cc1C(=O)NCC(F)F (stereo not drawn) [Example 3.18]
IC50: < 1 nM

CC(=O)C1=C(C)N(c2cccc(C(F)(F)F)c2)C(=O)N(C)C1c1ccc(C#N)cc1C(=O)NCc1cccnc1 (stereo not drawn) [Example 1.48]
IC50: < 1 nM

CC(=O)C1=C(C)N(c2cccc(C(F)(F)F)c2)C(=O)N(C)C1c1ccc(C#N)cc1C1=CCNCC1 (stereo not drawn) [Example 10, 4-[5-Acetyl-3,6-dimethyl-2-oxo-1-(3-trifluoromethyl-phenyl)-1,2,3,4-tetrahydro-pyrimidin-4-yl]-3-(1,2,3,6-tetrahydro-pyridin-4-yl)-benzonitrile]
IC50: < 1 nM

CCOC(=O)C1=C(C)N(c2cccc(C(F)(F)F)c2)C(=O)N(C)C1c1ccc(C#N)cc1C1=CCNCC1 (stereo not drawn) [Example 15, 4-[4-Cyano-2-(1,2,3,6-tetrahydro-pyridin-4-yl)-phenyl]-3,6-dimethyl-2-oxo-1-(3-trifluoromethyl-phenyl)-1,2,3,4-tetrahydro-pyrimidine-5-carboxylic acid ethyl ester]
IC50: 3 nM

CC(=O)C1=C(C)N(c2cccc(C(F)(F)F)c2)C(=O)N(C)C1c1ccc(C#N)cc1C1=CN(C(=O)OC(C)(C)C)CC1 (stereo not drawn) [Example 5.5]
IC50: 5.3 nM

CC(=O)C1=C(C)N(c2cccc(C(F)(F)F)c2)C(=O)N(C)C1c1ccc(C#N)cc1C(=O)NCCS(C)(=O)=O (stereo not drawn) [Example 1.29]
IC50: < 1 nM

CCOC(=O)C1=C(C)N(c2cccc(C(F)(F)F)c2)C(=O)N(C)C1c1ccc(C#N)cc1C(=O)N(C)CCOC (stereo not drawn) [Example 3.24]
IC50: 1 nM

CCOC(=O)C1=C(C)N(c2cccc(C(F)(F)F)c2)C(=O)N(C)C1c1ccc(C#N)cc1C(=O)N1CC[C@@H](N)C1 (stereo partly drawn) [Example 4.12]
IC50: < 1 nM

CC(=O)C1=C(C)N(c2cccc(C(F)(F)F)c2)C(=O)N(C)C1c1ccc(C#N)cc1C(=O)N(C)Cc1nccn1C (stereo not drawn) [Example 1.75]
IC50: < 1 nM

CCOC(=O)C1=C(C)N(c2cccc(C(F)(F)F)c2)C(=O)N(C)C1c1ccc(C#N)cc1-c1ccnn1C (stereo not drawn) [Example 14.6]
IC50: 3.1 nM

CC(=O)C1=C(C)N(c2cccc(C(F)(F)F)c2)C(=O)N(C)C1c1ccc(C#N)cc1C(=O)NCC(F)F (stereo not drawn) [Example 1.17]
IC50: < 1 nM

C#CCNC(=O)c1cc(C#N)ccc1C1C(C(=O)OCC)=C(C)N(c2cccc(C(F)(F)F)c2)C(=O)N1C (stereo not drawn) [Example 3.6]
IC50: 3 nM

CC(=O)C1=C(C)N(c2cccc(C(F)(F)F)c2)C(=O)N(C)C1c1ccc(C#N)cc1C(=O)N(C)Cc1ccncc1 (stereo not drawn) [Example 1.68]
IC50: < 1 nM

COCCN(C)C(=O)c1cc(C#N)ccc1C1C(C(C)=O)=C(C)N(c2cccc(C(F)(F)F)c2)C(=O)N1C (stereo not drawn) [Example 1.21]
IC50: < 1 nM

CCOC(=O)C1=C(C)N(c2cccc(C(F)(F)F)c2)C(=O)N(C)C1c1ccc(C#N)cc1C(=O)N1CC[C@H](N)C1 (stereo partly drawn) [Example 4.13]
IC50: < 1 nM

CC(=O)C1=C(C)N(c2cccc(C(F)(F)F)c2)C(=O)N(C)C1c1ccc(C#N)cc1C(=O)NCc1cocn1 (stereo not drawn) [Example 1.42]
IC50: < 1 nM

CCNC(=O)c1cc(C#N)ccc1C1C(C(=O)OCC)=C(C)N(c2cccc(C(F)(F)F)c2)C(=O)N1C (stereo not drawn) [Example 3.5]
IC50: 3 nM

CC(=O)C1=C(C)N(c2cccc(C(F)(F)F)c2)C(=O)N(C)C1c1ccc(C#N)cc1C(=O)N1CCN2CCCC2C1 (stereo not drawn) [Example 1.80]
IC50: 6.3 nM

CC(=O)C1=C(C)N(c2cccc(C(F)(F)F)c2)C(=O)N(C)C1c1ccc(C#N)cc1C(N)=O (stereo not drawn) [Example 1, 2-[5-Acetyl-3,6-dimethyl-2-oxo-1-(3-trifluoromethyl-phenyl)-1,2,3,4-tetrahydro-pyrimidin-4-yl]-5-cyano-benzamide]
IC50: < 1 nM

CC(=O)C1=C(C)N(c2cccc(C(F)(F)F)c2)C(=O)N(C)C1c1ccc(C#N)cc1C(=O)NC1CCN(C)C1 (stereo not drawn) [Example 1.43]
IC50: < 1 nM
